Results on 1 compound are retold here after patent US8748347B2 (priority 2009, dated 2014).

Each structure is given as a SMILES string.

Experiment [1] relates to Phytophthora infestans. Format: cell-based. Particulars: YPBG medium, 125 ppm, 18° C., seven days.
In experiment [2] the test system is Septoria tritici. Kind of experiment: Fungicidal action on pathogens, growth in medium analyzed at 405 nm (Example 3). Format: cell-based. To be noted: 2% malt medium, 125 ppm, 18° C., seven days. The procedure:
Various pathogens were tested under respective test mediums and concentrations of UV filters (see Table 2). The pathogens were incubated at a temperature of 18° C. for seven days. The growth of the pathogens was compared to an untreated sample. Table 2 lists the growth compared to the untreated sample, which corresponds to 100%. The growth was analyzed at 405 nm.

For experiment [3], the system named is Ramularia collo-cygni. Kind of experiment: Preventive action on winter barley against Ramularia collo-cygni, field trial (Example 2). Format: in vivo. To be noted: barley variety Malwinta, natural infection, application at BBCH 49, evaluated 12 days after application, 0 = as untreated, 100 = not infected, UV Filter A 500 g ai/ha, Actives A & B 240 & 297 g ai/ha. The procedure: As active substance a mixture of active substances was used called “Actives A & B”, which was prepared by mixing Active A and Active B. Active A was a fungicidal suspension concentrate comprising 6 wt % epoxiconazol, 20.8 wt % boscalid, 11.2-12.6 wt % fatty alcohol alkoxylate, C8-alkyl glucoside, and phenolsulfonic acid-formaldehyde-polycondensate sodium salt (commercially available pesticide formulation from BASF SE as Champion®). Active B a fungicidal suspoemulsion comprising 20.6 wt % fenpropimorph, 11 wt % pyraclostrobin, 4.1 wt % epoxiconazol, 20.5 wt % solvent naphtha, 11 wt % fatty alcohol ethoxylate and 4.8 wt % phenolsulfonic acid-formaldehyde-polycondensate sodium salt (commercially available pesticide formulation from BASF SE as Diamant®). UV Filter A was prepared as described in example 1.
The biological trial was conducted under field conditions. The barley variety Malwinta was planted and grown under standard conditions with adequate supply of water and nutrients. […] The disease incidences were evaluated 12 days after application.
The diseases were converted into efficacies. […] The expected efficacies of active compound mixtures were determined using Colby's formula [R. S. Colby, “Calculating synergistic and antagonistic responses of herbicide combinations”, Weeds 15, 20-22 (1967)] and compared with the observed efficacies.

Turning to `COCCOCCOCCOCCOCCOCCOCCOC(=O)C(C#N)=C(c1ccccc1)c1ccccc1` [UV Filter A, 2-Cyano-3,3-diphenyl-acrylsäure-[Pluriol A350E]-ester], the “Growth (%) relative to untreated sample” value in experiment [1] is listed as 78%; in experiment [2], 40%. Moreover, in experiment [3], the Efficacy amounted to 0.
